Laboratory results from ChEMBL document CHEMBL3526147, “Tissue distribution and characterization of drug-related material in rats and dogs after repeated oral administration of casopitant” (Drug Metab Dispos, 2011).

Key:
[1] = Drug level in lung of beagle dog treated with [14C]casopitant mesylate at 40 mg/kg/day, po administered as repeat dose measured after 24 hrs on day 14 by HPLC-MS/MS method relative to [14C]casopitant mesylate radioactivity; format: ADME, organism-based, Canis lupus familiaris; parameters: dosed compound name [14C]Casopitant, route oral; settings: in vivo
Plasma [2] = assay: Drug level in plasma of Sprague-Dawley rat treated with [14C]casopitant mesylate at 60 mg/kg/day, po administered as repeat dose measured after 24 hrs on day 20 by HPLC-MS/MS method relative to [14C]casopitant mesylate radioactivity; format: ADME, organism-based; parameters: dosed compound name [14C]Casopitant, route oral; settings: in vivo
Canis familiaris [3] = assay: Cmax in beagle dog treated with [14C]casopitant mesylate at 40 mg/kg/day, po administered as repeat dose measured after 26 weeks by HPLC-MS/MS method; format: ADME, organism-based, Canis lupus familiaris; parameters: dose 40 mg/kg/day, dosed compound name [14C]Casopitant, route oral; settings: in vivo, 4368 h
Plasma [4] = assay: Drug level in plasma of beagle dog treated with [14C]casopitant mesylate at 40 mg/kg/day, po administered as repeat dose measured after 24 hrs on day 14 by HPLC-MS/MS method relative to [14C]casopitant mesylate radioactivity; format: ADME, organism-based, Canis lupus familiaris; parameters: dosed compound name [14C]Casopitant, route oral; settings: in vivo
[5] = Drug level in skeletal muscle of beagle dog treated with [14C]casopitant mesylate at 40 mg/kg/day, po administered as repeat dose measured after 24 hrs on day 14 by HPLC-MS/MS method relative to [14C]casopitant mesylate radioactivity; format: ADME, organism-based, Canis lupus familiaris, Muscle tissue; parameters: dosed compound name [14C]Casopitant, route oral; settings: in vivo
Canis familiaris [6] = assay: AUC (0 to t) in beagle dog treated with [14C]casopitant mesylate at 40 mg/kg/day, po administered as repeat dose measured after 26 weeks by HPLC-MS/MS method; format: ADME, organism-based, Canis lupus familiaris, Plasma; parameters: dosed compound name [14C]Casopitant, route oral; settings: in vivo, 4368 h
[7] = Drug level in myocardium of beagle dog treated with [14C]casopitant mesylate at 40 mg/kg/day, po administered as repeat dose measured after 6 weeks by HPLC-MS/MS method; format: ADME, organism-based, Canis lupus familiaris; parameters: dosed compound name [14C]Casopitant, route oral; settings: in vivo, 1008 h
[8] = Drug level in myocardium of beagle dog treated with [14C]casopitant mesylate at 40 mg/kg/day, po administered as repeat dose measured after 13 weeks by HPLC-MS/MS method; format: ADME, organism-based, Canis lupus familiaris; parameters: dosed compound name [14C]Casopitant, route oral; settings: in vivo, 2184 h
[9] = Drug level in myocardium of beagle dog treated with [14C]casopitant mesylate at 40 mg/kg/day, po administered as repeat dose measured after 20 weeks by HPLC-MS/MS method; format: ADME, organism-based, Canis lupus familiaris; parameters: dosed compound name [14C]Casopitant, route oral; settings: in vivo, 3360 h
Canis familiaris [10] = assay: Tmax in beagle dog treated with [14C]casopitant mesylate at 40 mg/kg/day, po administered as repeat dose measured after 26 weeks by HPLC-MS/MS method; format: ADME, organism-based, Canis lupus familiaris; parameters: dosed compound name [14C]Casopitant, route oral; settings: in vivo, 4368 h
[11] = Drug level in myocardium of beagle dog treated with [14C]casopitant mesylate at 40 mg/kg/day, po administered as repeat dose measured after 22 weeks post dosing withdrawal by HPLC-MS/MS method; format: ADME, organism-based, Canis lupus familiaris; parameters: dosed compound name [14C]Casopitant, route oral; settings: in vivo, 3696 h
[12] = Drug level in kidney of beagle dog treated with [14C]casopitant mesylate at 40 mg/kg/day, po administered as repeat dose measured after 24 hrs on day 14 by HPLC-MS/MS method relative to [14C]casopitant mesylate radioactivity; format: ADME, organism-based, Canis lupus familiaris; parameters: dosed compound name [14C]Casopitant, route oral; settings: in vivo
[13] = Drug level in myocardium of beagle dog treated with [14C]casopitant mesylate at 40 mg/kg/day, po administered as repeat dose measured after 26 weeks by HPLC-MS/MS method; format: ADME, organism-based, Canis lupus familiaris; parameters: dosed compound name [14C]Casopitant, route oral; settings: in vivo, 4368 h
[14] = Drug level in myocardium of beagle dog treated with [14C]casopitant mesylate at 40 mg/kg/day, po administered as repeat dose measured after 24 hrs on day 14 by HPLC-MS/MS method relative to [14C]casopitant mesylate radioactivity; format: ADME, organism-based, Canis lupus familiaris; parameters: dosed compound name [14C]Casopitant, route oral; settings: in vivo
Plasma [15] = assay: Drug level in beagle dog plasma treated with [14C]casopitant mesylate at 40 mg/kg/day, po administered as repeat dose measured during 24 hrs dosing interval on week 26 by HPLC-MS/MS method; format: ADME, organism-based, Canis lupus familiaris; parameters: dosed compound name [14C]Casopitant, route oral; settings: in vivo

Row | Compound recovery [1] | Compound recovery (Plasma [2]) | Cmax (Canis familiaris [3]) [ng/mL] | Compound recovery (Plasma [4]) | Compound recovery [5] | AUCt (Canis familiaris [6]) [ng·h/mL] | Compound recovery [7] [ng/g] | Compound recovery [8] [ng/g] | Compound recovery [9] [ng/g] | Tmax (Canis familiaris [10]) [h] | Drug concentration in myocardium [11] [ng/g] | Compound recovery [12] | Compound recovery [13] [ng/g] | Compound recovery [14] | Compound recovery (Plasma [4]; BLD = below limit of detection) | Compound recovery (Plasma [15]) | SMILES
1 | 1.9% | 0.3% | 4357 | 4.8% | 4.2% | 61603 | 2041 | 4516 | 6554 | 4 | < 50 | 2.9% | 3686 | 2.1% | – | – | CC(=O)N1CCN([C@H]2CCN(C(=O)N(C)[C@H](C)c3cc(C(F)(F)F)cc(C(F)(F)F)c3)[C@@H](c3ccc(F)cc3C)C2)CC1O (some centres not stated)
2 | 2.3% | Metabolite not detected | 65.5 | – | 2.4% | 1442 | 39180 | 62780 | 85193 | 24 | 31732 | 4.8% | 114014 | 3.7% | BLD | – | Cc1cc(F)ccc1[C@H]1C[C@@H](NCCN)CCN1C(=O)N(C)[C@H](C)c1cc(C(F)(F)F)cc(C(F)(F)F)c1
3 | Metabolite not detected | 4.6% | – | Metabolite not detected | Metabolite not detected | – | – | – | – | – | – | Metabolite not detected | – | Metabolite not detected | – | – | C[C@@H](NC(N)=O)c1cc(C(F)(F)F)cc(C(F)(F)F)c1
4 | 11.9% | 1.5% | 82 | 0.8% | 7.6% | 1803 | 3623 | 7867 | 14215 | 8 | < 50 | 7% | 11346 | 3.4% | – | metabolite_detected | Cc1cc(F)ccc1[C@H]1C[C@@H](N2CCNCC2)CCN1C(=O)N(C)[C@H](C)c1cc(C(F)(F)F)cc(C(F)(F)F)c1
5 | – | – | 189 | – | – | 3040 | 2379 | 5386 | 9399 | 1 | < 50 | – | 6644 | – | – | metabolite_detected | CC(=O)NCCN[C@H]1CCN(C(=O)N(C)[C@H](C)c2cc(C(F)(F)F)cc(C(F)(F)F)c2)[C@@H](c2ccc(F)cc2C)C1
6 | – | – | 1044 | – | – | 22858 | 29401 | 39073 | 52699 | 24 | 408 | – | 58640 | – | – | metabolite_detected | Cc1cc(F)ccc1[C@H]1C[C@@H](N)CCN1C(=O)N(C)[C@H](C)c1cc(C(F)(F)F)cc(C(F)(F)F)c1
7 | 1.2% | 1.2% | 1013 | 4.1% | 3.5% | 21248 | 1517 | 2010 | 3286 | 8 | < 50 | 2.2% | 2416 | 1.6% | – | metabolite_detected | Cc1cc(F)ccc1[C@H]1C[C@@H](N2CCNC(=O)C2)CCN1C(=O)N(C)[C@H](C)c1cc(C(F)(F)F)cc(C(F)(F)F)c1
8 | 0.6% | 0.2% | – | 0.9% | 1.3% | – | – | – | – | – | – | 1.1% | – | 0.5% | – | – | CC(=O)N1CCN([C@H]2CCN(C(=O)N(C)[C@H](C)c3cc(C(F)(F)F)cc(C(F)(F)F)c3)[C@@H](c3ccc(F)cc3C)C2)CC1=O
9 | 11.9% | 1.5% | 7167 | 1.9% | 2.4% | 53599 | 467 | 1991 | 2098 | 1 | < 50 | 7% | 889 | 3.7% | – | – | CC(=O)N1CCN([C@H]2CCN(C(=O)N(C)[C@H](C)c3cc(C(F)(F)F)cc(C(F)(F)F)c3)[C@@H](c3ccc(F)cc3C)C2)CC1.CS(=O)(=O)O [CASOPITANT MESYLATE]
